From patent US6914045B2, “Glycopeptide antibiotics” (Wyeth Holdings Corporation, priority 2001, dated 2005)
≈ marks a conversion by molar mass, not a printed value.

Columns and labels:
Test in all cases: in vitro antibacterial evaluation, MIC by broth dilution
Format in all cases: cell-based
[1] = tested on: Escherichia coli
Method in brief: (§1)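 Broth dilution per NCCLS standard M7-A2 in Muller-Hinton II […], with an inoculum of 5×10^5 CFU/mL and antibiotic spanning 64-0.06 μg/mL. The MIC is the lowest concentration that inhibits growth of the organism.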

[2] = tested on: Staphylococcus sp.; settings: broth dilution, 18 hours at 35° C.; for MIC Staphylococcus aureus (GC 1131): strain GC 1131
Method in brief: as §1

[3] = tested on: Enterococcus sp.; settings: broth dilution, 18 hours at 35° C.; for MIC Enterococcus faecalis (ATCC 29212): strain ATCC 29212; for MIC Enterococcus faecalis (GC 2242): strain GC 2242; for MIC Enterococcus faecium (GC 2243): strain GC 2243; for MIC Enterococcus faecalis (GC 2691): strain GC 2691; for MIC Enterococcus faecalis (GC 3059): strain GC 3059; for MIC Enterococcus faecalis (GC 4552): strain GC 4552; for MIC Enterococcus faecalis (GC 4553): strain GC 4553; for MIC Enterococcus faecalis (GC 4554): strain GC 4554; for MIC Enterococcus faecium (GC 4556): strain GC 4556; for MIC Enterococcus faecium (GC 4557): strain GC 4557; for MIC Enterococcus avium (GC 4558): strain GC 4558; for MIC Enterococcus faecalis (GC 6189): strain GC 6189
Method in brief: as §1

[4] = tested on: Streptococcus sp.; settings: broth dilution, 18 hours at 35° C.; for MIC Streptococcus pneumoniae (ATCC 6301): strain ATCC 6301; for MIC Streptococcus pneumoniae (GC 1894): strain GC 1894; for MIC Streptococcus pyogenes (GC 4563): strain GC 4563; for MIC Streptococcus agalactiae (GC 4564): strain GC 4564; for MIC Streptococcus pneumoniae (GC 4565): strain GC 4565
Method in brief: as §1

CC(c1ccccc1)C1NC(=O)CNC(=O)C(CO)NC(=O)C(C(O)C2CNC(=N)N2C2OC(CO)C(O)C(O)C2O)NC(=O)C(C(O)C2CNC(=N)N2)NC(=O)C(Cc2ccc(OC3OC(CO)C(OC4OC5COC(c6cccc(OCc7ccc([N+](=O)[O-])cc7)c6)OC5C(O)C4O)C(O)C3O)cc2)NC1=O (centres unmarked) [Example 182] was tested, and the “MIC Escherichia coli (ATCC 25922)” value ([1]; strain ATCC 25922, 18 hours at 35° C.) was greater than 64 µg/mL, the “MIC Escherichia coli (GC 4559)” value ([1]; strain GC 4559, 18 hours at 35° C.) was greater than 64 µg/mL and the “MIC Escherichia coli (GC 4560)” value ([1]; strain GC 4560, 18 hours at 35° C.) was greater than 64 µg/mL. For the same compound, the “MIC Staphylococcus aureus (GC 1131)” value ([2]; inoculum 5×10^5 CFU/mL) was greater than 64 µg/mL, the “MIC Staphylococcus aureus (ATCC 29213)” value ([2]; strain ATCC 29213) was greater than 64 µg/mL and the “MIC Staphylococcus aureus (GC 1131)” value [2] was greater than 64 µg/mL. The “MIC Staphylococcus aureus (GC 3051)” value ([2]; strain GC 3051) was greater than 64 µg/mL, the “MIC Staphylococcus aureus (GC 3053)” value ([2]; strain GC 3053) was greater than 64 µg/mL and the “MIC Staphylococcus aureus (GC 4541)” value ([2]; strain GC 4541) was greater than 64 µg/mL. For the same compound, the “MIC Staphylococcus aureus (GC 4542)” value ([2]; strain GC 4542) was greater than 64 µg/mL, the “MIC Staphylococcus aureus (GC 4544)” value ([2]; strain GC 4544) was greater than 64 µg/mL and the “MIC Staphylococcus aureus (GC 4545)” value ([2]; strain GC 4545) was greater than 64 µg/mL. For the same compound, the “MIC Staphylococcus aureus-SMITH (GC 4543)” value ([2]; strain GC 4543) was greater than 64 µg/mL, the “MIC Staphylococcus haemolyticus (GC 4546)” value ([2]; strain GC 4546) was greater than 64 µg/mL and the “MIC Coagulase Negative Staphylococcus (GC 4547)” value ([2]; strain GC 4547) was greater than 64 µg/mL. For the same compound, the “MIC Coagulase Negative Staphylococcus (GC 4548)” value ([2]; strain GC 4548) was greater than 64 µg/mL, the “MIC Coagulase Negative Staphylococcus (GC 4549)” value ([2]; strain GC 4549) was greater than 64 µg/mL and the “MIC Coagulase Negative Staphylococcus (GC 4551)” value ([2]; strain GC 4551) was greater than 64 µg/mL. The “MIC Coagulase Negative Staphylococcus (GC 6257)” value ([2]; strain GC 6257) was greater than 64 µg/mL, the “MIC Enterococcus faecalis (ATCC 29212)” value ([3]; inoculum 5×10^5 CFU/mL) was greater than 64 µg/mL and the “MIC Enterococcus faecalis (GC 2242)” value ([3]; inoculum 5×10^5 CFU/mL) was greater than 64 µg/mL. For the same compound, the “MIC Enterococcus faecium (GC 2243)” value ([3]; inoculum 5×10^5 CFU/mL) was greater than 64 µg/mL, the “MIC Enterococcus faecalis (GC 2691)” value ([3]; inoculum 5×10^5 CFU/mL) was greater than 64 µg/mL and the “MIC Enterococcus faecalis (GC 3059)” value ([3]; inoculum 5×10^5 CFU/mL) was greater than 64 µg/mL. The “MIC Enterococcus faecalis (GC 4552)” value ([3]; inoculum 5×10^5 CFU/mL) was greater than 64 µg/mL, the “MIC Enterococcus faecalis (GC 4553)” value ([3]; inoculum 5×10^5 CFU/mL) was greater than 64 µg/mL and the “MIC Enterococcus faecalis (GC 4554)” value ([3]; inoculum 5×10^5 CFU/mL) was greater than 64 µg/mL. For the same compound, the “MIC Enterococcus faecium (GC 4556)” value ([3]; inoculum 5×10^5 CFU/mL) was greater than 64 µg/mL, the “MIC Enterococcus faecium (GC 4557)” value ([3]; inoculum 5×10^5 CFU/mL) was greater than 64 µg/mL and the “MIC Enterococcus avium (GC 4558)” value ([3]; inoculum 5×10^5 CFU/mL) was greater than 64 µg/mL. The “MIC Enterococcus faecalis (GC 6189)” value ([3]; inoculum 5×10^5 CFU/mL) was greater than 64 µg/mL, the “MIC Enterococcus faecalis (ATCC 29212)” value [3] was greater than 64 µg/mL and the “MIC Enterococcus faecalis (GC 2242)” value [3] was greater than 64 µg/mL. For the same compound, the “MIC Enterococcus faecium (GC 2243)” value [3] was greater than 64 µg/mL, the “MIC Enterococcus faecalis (GC 2691)” value [3] was greater than 64 µg/mL and the “MIC Enterococcus faecalis (GC 3059)” value [3] was greater than 64 µg/mL. For the same compound, the “MIC Enterococcus faecalis (GC 4552)” value [3] was greater than 64 µg/mL, the “MIC Enterococcus faecalis (GC 4553)” value [3] was greater than 64 µg/mL and the “MIC Enterococcus faecalis (GC 4554)” value [3] was greater than 64 µg/mL. The “MIC Enterococcus faecium (GC 4556)” value [3] was greater than 64 µg/mL, the “MIC Enterococcus faecium (GC 4557)” value [3] was greater than 64 µg/mL and the “MIC Enterococcus avium (GC 4558)” value [3] was greater than 64 µg/mL. For the same compound, the “MIC Enterococcus faecalis (GC 6189)” value [3] was greater than 64 µg/mL, the “MIC Streptococcus pneumoniae (ATCC 6301)” value ([4]; inoculum 5×10^5 CFU/mL) was 4 µg/mL (≈ 2.61 µM) and the “MIC Streptococcus pneumoniae (GC 1894)” value ([4]; inoculum 5×10^5 CFU/mL) was 8 µg/mL (≈ 5.21 µM). The “MIC Streptococcus pyogenes (GC 4563)” value ([4]; inoculum 5×10^5 CFU/mL) was 64 µg/mL (≈ 41.7 µM), the “MIC Streptococcus agalactiae (GC 4564)” value ([4]; inoculum 5×10^5 CFU/mL) was 32 µg/mL (≈ 20.9 µM) and the “MIC Streptococcus pneumoniae (GC 4565)” value ([4]; inoculum 5×10^5 CFU/mL) was 8 µg/mL (≈ 5.21 µM). The “MIC Streptococcus pneumoniae (ATCC 6301)” value [4] was 4 µg/mL (≈ 2.61 µM), the “MIC Streptococcus pneumoniae (GC 1894)” value [4] was 8 µg/mL (≈ 5.21 µM) and the “MIC Streptococcus pyogenes (GC 4563)” value [4] was 64 µg/mL (≈ 41.7 µM). For the same compound, the “MIC Streptococcus agalactiae (GC 4564)” value [4] was 32 µg/mL (≈ 20.9 µM) and the “MIC Streptococcus pneumoniae (GC 4565)” value [4] was 8 µg/mL (≈ 5.21 µM).
